Read-outs that look alike come from different tables or passages of the source.
What was measured:
[1] = system: surgically stressed rats; settings: rat, in vivo
Description: (§1) The solution was continuously administered to surgically stressed rats underwent intestinal tract scratch operation at a normal dose (240 mL/kg/day) for 3 days. On the final day of administration, urine was collected by 24-hour urine collection and measured for the urinary electrolyte concentration.

[2] = system: surgically stressed rats; test: Effect on body electrolyte: urinary electrolyte after continuous administration in glucose-electrolytes infusion solution (SOLITA-T No. 3)
Description: as §1

[3] = HMB final concentration 0.42 weight/volume % in SOLITA-T No. 3, 240 mL/kg/day for 3 days, 24-hour urine of the final day

| Structure (SMILES) | Electrolyte abnormality (urinary calcium, urinary phosphate) in combined administration with SOLITA-T No. 3 infusion solution [1] | Urinary calcium excretion amount [2, 3] [mg/day] | Urinary phosphate excretion amount [2, 3] [mg/day] | Electrolyte abnormality (urinary calcium, urinary phosphate) in combined administration with SOLITA-T No. 3 infusion solution ([2]; in words) |
| --- | --- | --- | --- | --- |
| CC(C)(O)CC(=O)[O-].CC(C)(O)CC(=O)[O-].[Ca+2] [Calcium salt hydrate of HMB, calcium salt hydrate of HMB] | induces the increase in urinary calcium and the decrease in urinary phosphate excretion |  |  |  |
| CC(C)(O)CC(=O)O.N=C(N)NCCCC(N)C(=O)O (stereo not shown) [Arginine salt nonhydrate of HMB, arginine salt nonhydrate of HMB] |  | 0.24 | 19.1 | does not induce the above electrolyte abnormality |

From US11098007B2, “Crystal of amino acid salt of 3-hydroxyisovaleric acid and production method thereof” (KYOWA HAKKO BIO CO., LTD., priority 2016, dated 2021)
